Assay results taken from ChEMBL document CHEMBL1201862, “PubChem BioAssay data set” (2004).
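Assay format: 96-well plates, 48-hour exposure. Abbreviation: GI50, concentration required for 50% inhibition of growth.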 Active and inactive are the calls of the source. Cut-off read from the data, not from the text of the source: active = GI50 up to about 1.1 µM and inactive = higher.

Legend:
Assay in all cases: NCI anticancer screen, dose series, 48 h
[1] = tested on: 786-0
[2] = tested on: A498
[3] = tested on: A549
[4] = tested on: ACHN
[5] = tested on: CAKI-1
[6] = tested on: CCRF-CEM
[7] = tested on: COLO 205
[8] = tested on: DLD-1
[9] = tested on: DMS-114
[10] = tested on: DMS-273
[11] = tested on: EKVX
[12] = tested on: HCC 2998
[13] = tested on: HCT-116
[14] = tested on: HCT-15
[15] = tested on: HL-60
[16] = tested on: HOP-18
[17] = tested on: HOP-62
[18] = tested on: HOP-92
[19] = tested on: HT-29
[20] = tested on: IGROV-1
[21] = tested on: K562
[22] = tested on: KM-20L2
[23] = tested on: KM12
[24] = tested on: LOX IMVI
[25] = tested on: LXFL 529
[26] = tested on: M14
[27] = tested on: M19-MEL
[28] = tested on: MOLT-4
[29] = tested on: Malme-3M
[30] = tested on: NCI-H23
[31] = tested on: NCI-H460
[32] = tested on: NCI-H522
[33] = tested on: OVCAR-3
[34] = tested on: OVCAR-4
[35] = tested on: OVCAR-5
[36] = tested on: OVCAR-8
[37] = tested on: RPMI-8226
[38] = tested on: RXF 393
[39] = tested on: SF-268
[40] = tested on: SF-295
[41] = tested on: SF-539
[42] = tested on: SK-MEL-28
[43] = tested on: SK-MEL-2
[44] = tested on: SK-MEL-5
[45] = tested on: SK-OV-3
[46] = tested on: SN12C
[47] = tested on: SNB-19
[48] = tested on: SNB-75
[49] = tested on: SNB-78
[50] = tested on: SR
[51] = tested on: SW-620
[52] = tested on: TK-10
[53] = tested on: U-251
[54] = tested on: UACC-257
[55] = tested on: UACC-62
[56] = tested on: UO-31
[57] = tested on: NCI-H226
[58] = tested on: XF498

What does the source list for `COc1cc(Cn2c3ccccc3c3cc(C)c4c(c32)C=CC(C)(CCC=C(C)C)O4)cc2c1[nH]c1ccccc12` (stereo not drawn) [CHRESTFOLINE C]?
GI50 [1]: > 100 µM (inactive); GI50 [2]: > 100 µM (inactive); GI50 [3]: > 100 µM (inactive); GI50 [4]: > 100 µM (inactive); GI50 [5]: > 100 µM (inactive); GI50 [6]: > 100 µM (inactive); GI50 [7]: > 100 µM (inactive); GI50 [8]: > 100 µM (inactive); GI50 [9]: > 100 µM (inactive); GI50 [10]: > 100 µM (inactive); GI50 [11]: > 100 µM (inactive); GI50 [12]: > 100 µM (inactive); GI50 [13]: > 100 µM (inactive); GI50 [14]: > 100 µM; GI50 [15]: > 100 µM (inactive); GI50 [16]: > 100 µM (inactive); GI50 [17]: > 100 µM (inactive); GI50 [18]: > 100 µM (inactive); GI50 [19]: > 100 µM (inactive); GI50 [20]: > 100 µM (inactive); GI50 [21]: > 100 µM (inactive); GI50 [22]: > 100 µM (inactive); GI50 [23]: > 100 µM (inactive); GI50 [24]: > 100 µM (inactive); GI50 [25]: 88.5 µM (inactive); GI50 [26]: > 100 µM (inactive); GI50 [27]: > 100 µM (inactive); GI50 [28]: > 100 µM (inactive); GI50 [29]: > 100 µM (inactive); GI50 [30]: > 100 µM (inactive); GI50 [31]: > 100 µM (inactive); GI50 [32]: > 100 µM (inactive); GI50 [33]: > 100 µM (inactive); GI50 [34]: > 100 µM (inactive); GI50 [35]: > 100 µM (inactive); GI50 [36]: > 100 µM (inactive); GI50 [37]: > 100 µM (inactive); GI50 [38]: > 100 µM (inactive); GI50 [39]: > 100 µM (inactive); GI50 [40]: > 100 µM (inactive); GI50 [41]: > 100 µM (inactive); GI50 [42]: > 100 µM (inactive); GI50 [43]: > 100 µM (inactive); GI50 [44]: > 100 µM (inactive); GI50 [45]: > 100 µM (inactive); GI50 [46]: > 100 µM (inactive); GI50 [47]: > 100 µM (inactive); GI50 [48]: > 100 µM (inactive); GI50 [49]: > 100 µM (inactive); GI50 [50]: > 100 µM (inactive); GI50 [51]: > 100 µM (inactive); GI50 [52]: > 100 µM (inactive); GI50 [53]: > 100 µM (inactive); GI50 [54]: > 100 µM (inactive); GI50 [55]: > 100 µM (inactive); GI50 [56]: > 100 µM (inactive)

For `COc1cc(OC)c2c(=O)cc(-c3ccc(OC)c(OC)c3OC)oc2c1`, which GI50 [1] is on record?
Its GI50 is 38.5 µM (inactive).

What about the GI50 [3] of the same molecule?
The GI50 was > 100 µM (inactive).

What about the GI50 [4] of the same molecule?
Its GI50 is 83.6 µM (inactive).

What about the GI50 [5] of the same molecule?
Its GI50 is > 100 µM (inactive).

What about the GI50 [6] of the same molecule?
The GI50 was > 10 µM (inactive).

And the GI50 [7]?
The GI50 was > 100 µM (inactive).

And the GI50 [8]?
The GI50 was > 100 µM (inactive).

What about the GI50 [9] of the same molecule?
The GI50 was > 100 µM (inactive).

What about the GI50 [11] of the same molecule?
The GI50 was > 100 µM (inactive).

What about the GI50 [12] of the same molecule?
The GI50 was > 100 µM (inactive).

And the GI50 [13]?
Its GI50 is > 100 µM (inactive).

And the GI50 [14]?
Its GI50 is over 100 µM.

And the GI50 [15]?
Its GI50 is > 100 µM (inactive).

And the GI50 [17]?
Its GI50 is 27.7 µM (inactive).

What about the GI50 [18] of the same molecule?
The GI50 was 37 µM (inactive).

What about the GI50 [19] of the same molecule?
The GI50 was > 100 µM (inactive).

And the GI50 [20]?
Its GI50 is > 100 µM (inactive).

And the GI50 [21]?
Its GI50 is > 100 µM (inactive).

What about the GI50 [22] of the same molecule?
The GI50 was > 100 µM (inactive).

And the GI50 [23]?
The GI50 was > 100 µM (inactive).

What about the GI50 [24] of the same molecule?
The GI50 was > 100 µM (inactive).

What about the GI50 [25] of the same molecule?
The GI50 was 89.5 µM (inactive).

What about the GI50 [26] of the same molecule?
The GI50 was > 100 µM (inactive).

And the GI50 [27]?
Its GI50 is > 100 µM (inactive).

And the GI50 [29]?
Its GI50 is > 100 µM (inactive).

What about the GI50 [57] of the same molecule?
Its GI50 is > 100 µM (inactive).

And the GI50 [30]?
Its GI50 is > 100 µM (inactive).

And the GI50 [32]?
The GI50 was 38.9 µM (inactive).

What about the GI50 [33] of the same molecule?
The GI50 was > 100 µM (inactive).

What about the GI50 [34] of the same molecule?
Its GI50 is 54.3 µM (inactive).

What about the GI50 [35] of the same molecule?
Its GI50 is > 100 µM (inactive).

What about the GI50 [37] of the same molecule?
Its GI50 is > 100 µM (inactive).

And the GI50 [38]?
Its GI50 is 57.5 µM (inactive).

And the GI50 [39]?
The GI50 was 48.2 µM (inactive).

And the GI50 [40]?
The GI50 was 52.2 µM (inactive).

And the GI50 [41]?
The GI50 was 31.9 µM (inactive).

And the GI50 [42]?
The GI50 was > 100 µM (inactive).

And the GI50 [43]?
Its GI50 is 60.1 µM (inactive).

What about the GI50 [45] of the same molecule?
Its GI50 is > 100 µM (inactive).

And the GI50 [46]?
Its GI50 is > 100 µM (inactive).

What about the GI50 [47] of the same molecule?
The GI50 was > 100 µM (inactive).

What about the GI50 [48] of the same molecule?
Its GI50 is 6.95 µM (inactive).

What about the GI50 [51] of the same molecule?
Its GI50 is > 100 µM (inactive).

What about the GI50 [52] of the same molecule?
Its GI50 is > 100 µM (inactive).

And the GI50 [54]?
The GI50 was > 100 µM (inactive).

What about the GI50 [55] of the same molecule?
Its GI50 is > 100 µM (inactive).

And the GI50 [58]?
The GI50 was > 100 µM (inactive).
